The text below walks through data of BindingDB's records for doi:10.1111/j.1432-1033.1992.tb17252.x (Universit&Eacute, 1992).

Non-standard residues stand in square brackets, D forms with d. Residues, ends and D or L forms follow the SMILES beside them. ξ: configuration not given here. Ile(3ξ) = CCC(C)[C@H](N)C(=O)O

This experiment addresses T1, Pituitary adenylate cyclase-activating polypeptide (Homo sapiens, UniProt P18509).
T1 sequence (P18509 whole entry): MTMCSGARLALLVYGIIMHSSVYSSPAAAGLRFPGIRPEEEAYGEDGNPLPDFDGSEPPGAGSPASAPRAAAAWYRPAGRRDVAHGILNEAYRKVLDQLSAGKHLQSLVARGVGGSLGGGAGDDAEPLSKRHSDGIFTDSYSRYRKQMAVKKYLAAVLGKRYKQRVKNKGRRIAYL

On to `CSCC[C@H](NC(=O)[C@H](CCC(N)=O)NC(=O)[C@H](CCCCN)NC(=O)[C@H](CCCN=C(N)N)NC(=O)[C@H](Cc1ccc(O)cc1)NC(=O)[C@H](CCCN=C(N)N)NC(=O)[C@H](CO)NC(=O)[C@H](Cc1ccc(O)cc1)NC(=O)[C@H](CO)NC(=O)[C@@H](N)CC(=O)O)C(=O)N[C@@H](C)C(=O)N[C@H](C(=O)N[C@@H](CCCCN)C(=O)N[C@@H](CCCCN)C(=O)N[C@@H](Cc1ccc(O)cc1)C(=O)N[C@@H](CC(C)C)C(=O)N[C@@H](C)C(=O)N[C@@H](C)C(=O)N[C@H](C(=O)N[C@@H](CC(C)C)C(N)=O)C(C)C)C(C)C` [PACAP(8-27)] (H-DSYSRYRKQMAVKKYLAAVL-NH2), for which affinity was put at a Ki of 1300 nM. This lies in the single-digit micromolar range. With `CSCC[C@H](NC(=O)[C@H](CCC(N)=O)NC(=O)[C@H](CCCCN)NC(=O)[C@H](CCCN=C(N)N)NC(=O)[C@H](Cc1ccc(O)cc1)NC(=O)[C@H](CCCN=C(N)N)NC(=O)[C@H](CO)NC(=O)[C@H](Cc1ccc(O)cc1)NC(=O)[C@@H](N)CO)C(=O)N[C@@H](C)C(=O)N[C@H](C(=O)N[C@@H](CCCCN)C(=O)N[C@@H](CCCCN)C(=O)N[C@@H](Cc1ccc(O)cc1)C(=O)N[C@@H](CC(C)C)C(=O)N[C@@H](C)C(=O)N[C@@H](C)C(=O)N[C@H](C(=O)N[C@@H](CC(C)C)C(=O)NCC(=O)N[C@@H](CCCCN)C(=O)N[C@@H](CCCN=C(N)N)C(=O)N[C@@H](Cc1ccc(O)cc1)C(=O)N[C@@H](CCCCN)C(=O)N[C@@H](CCC(N)=O)C(=O)N[C@@H](CCCN=C(N)N)C(=O)N[C@H](C(=O)N[C@@H](CCCCN)C(=O)N[C@@H](CC(N)=O)C(=O)N[C@@H](CCCCN)C(N)=O)C(C)C)C(C)C)C(C)C` [PACAP(9-38)] (H-SYSRYRKQMAVKKYLAAVLGKRYKQRVKNK-NH2) the figure was 50 nM. Consider `CSCC[C@H](NC(=O)[C@H](CCC(N)=O)NC(=O)[C@H](CCCCN)NC(=O)[C@H](CCCN=C(N)N)NC(=O)[C@H](Cc1ccc(O)cc1)NC(=O)[C@H](CCCN=C(N)N)NC(=O)[C@H](CO)NC(=O)[C@H](Cc1ccc(O)cc1)NC(=O)[C@H](CO)NC(=O)[C@H](CC(=O)O)NC(=O)[C@@H](N)[C@@H](C)O)C(=O)N[C@@H](C)C(=O)N[C@H](C(=O)N[C@@H](CCCCN)C(=O)N[C@@H](CCCCN)C(=O)N[C@@H](Cc1ccc(O)cc1)C(=O)N[C@@H](CC(C)C)C(=O)N[C@@H](C)C(=O)N[C@@H](C)C(=O)N[C@H](C(=O)N[C@@H](CC(C)C)C(N)=O)C(C)C)C(C)C` [PACAP(6-27)] (H-TDSYSRYRKQMAVKKYLAAVL-NH2), for which the affinity corresponds to a Ki of 100 nM. With `CSCC[C@H](NC(=O)[C@H](CCC(N)=O)NC(=O)[C@H](CCCCN)NC(=O)[C@H](CCCN=C(N)N)NC(=O)[C@H](Cc1ccc(O)cc1)NC(=O)[C@H](CCCN=C(N)N)NC(=O)[C@H](CO)NC(=O)[C@H](Cc1ccc(O)cc1)NC(=O)[C@H](CO)NC(=O)[C@H](CC(=O)O)NC(=O)[C@@H](NC(=O)[C@@H](N)Cc1ccccc1)[C@@H](C)O)C(=O)N[C@@H](C)C(=O)N[C@H](C(=O)N[C@@H](CCCCN)C(=O)N[C@@H](CCCCN)C(=O)N[C@@H](Cc1ccc(O)cc1)C(=O)N[C@@H](CC(C)C)C(=O)N[C@@H](C)C(=O)N[C@@H](C)C(=O)N[C@H](C(=O)N[C@@H](CC(C)C)C(N)=O)C(C)C)C(C)C` [PACAP(5-27)] (H-FTDSYSRYRKQMAVKKYLAAVL-NH2) the figure was 150 nM; with `CSCC[C@H](NC(=O)[C@H](CCC(N)=O)NC(=O)[C@H](CCCCN)NC(=O)[C@H](CCCN=C(N)N)NC(=O)[C@H](Cc1ccc(O)cc1)NC(=O)[C@H](CCCN=C(N)N)NC(=O)[C@H](CO)NC(=O)[C@H](Cc1ccc(O)cc1)NC(=O)[C@H](CO)NC(=O)[C@@H](N)CC(=O)O)C(=O)N[C@@H](C)C(=O)N[C@H](C(=O)N[C@@H](CCCCN)C(=O)N[C@@H](CCCCN)C(=O)N[C@@H](Cc1ccc(O)cc1)C(=O)N[C@@H](CC(C)C)C(=O)N[C@@H](C)C(=O)N[C@@H](C)C(=O)N[C@H](C(=O)N[C@@H](CC(C)C)C(=O)NCC(=O)N[C@@H](CCCCN)C(=O)N[C@@H](CCCN=C(N)N)C(=O)N[C@@H](Cc1ccc(O)cc1)C(=O)N[C@@H](CCCCN)C(=O)N[C@@H](CCC(N)=O)C(=O)N[C@@H](CCCN=C(N)N)C(=O)N[C@H](C(=O)N[C@@H](CCCCN)C(=O)N[C@@H](CC(N)=O)C(=O)N[C@@H](CCCCN)C(N)=O)C(C)C)C(C)C)C(C)C` [PACAP(8-38)] (H-DSYSRYRKQMAVKKYLAAVLGKRYKQRVKNK-NH2), 30 nM.

As to `CCC(C)[C@H](NC(=O)CN)C(=O)N[C@@H](Cc1ccccc1)C(=O)N[C@H](C(=O)N[C@@H](CC(=O)O)C(=O)N[C@@H](CO)C(=O)N[C@@H](Cc1ccc(O)cc1)C(=O)N[C@@H](CO)C(=O)N[C@@H](CCCN=C(N)N)C(=O)N[C@@H](Cc1ccc(O)cc1)C(=O)N[C@@H](CCCN=C(N)N)C(=O)N[C@@H](CCCCN)C(=O)N[C@@H](CCC(N)=O)C(=O)N[C@@H](CCSC)C(=O)N[C@@H](C)C(=O)N[C@H](C(=O)N[C@@H](CCCCN)C(=O)N[C@@H](CCCCN)C(=O)N[C@@H](Cc1ccc(O)cc1)C(=O)N[C@@H](CC(C)C)C(=O)N[C@@H](C)C(=O)N[C@@H](C)C(=O)N[C@H](C(=O)N[C@@H](CC(C)C)C(N)=O)C(C)C)C(C)C)[C@@H](C)O` (some centres not stated) [PACAP(4-27)] (H-G[Ile(3ξ)]FTDSYSRYRKQMAVKKYLAAVL-NH2), the Ki is 500 nM. With `CCC(C)[C@H](NC(=O)CNC(=O)[C@@H](N)CC(=O)O)C(=O)N[C@@H](Cc1ccccc1)C(=O)N[C@H](C(=O)N[C@@H](CC(=O)O)C(=O)N[C@@H](CO)C(=O)N[C@@H](Cc1ccc(O)cc1)C(=O)N[C@@H](CO)C(=O)N[C@@H](CCCN=C(N)N)C(=O)N[C@@H](Cc1ccc(O)cc1)C(=O)N[C@@H](CCCN=C(N)N)C(=O)N[C@@H](CCCCN)C(=O)N[C@@H](CCC(N)=O)C(=O)N[C@@H](CCSC)C(=O)N[C@@H](C)C(=O)N[C@H](C(=O)N[C@@H](CCCCN)C(=O)N[C@@H](CCCCN)C(=O)N[C@@H](Cc1ccc(O)cc1)C(=O)N[C@@H](CC(C)C)C(=O)N[C@@H](C)C(=O)N[C@@H](C)C(=O)N[C@H](C(=O)N[C@@H](CC(C)C)C(=O)NCC(=O)N[C@@H](CCCCN)C(=O)N[C@@H](CCCN=C(N)N)C(=O)N[C@@H](Cc1ccc(O)cc1)C(=O)N[C@@H](CCCCN)C(=O)N[C@@H](CCC(N)=O)C(=O)N[C@@H](CCCN=C(N)N)C(=O)N[C@H](C(=O)N[C@@H](CCCCN)C(=O)N[C@@H](CC(N)=O)C(=O)N[C@@H](CCCCN)C(N)=O)C(C)C)C(C)C)C(C)C)[C@@H](C)O` (some centres not stated) [PACAP(3-38)] (H-DG[Ile(3ξ)]FTDSYSRYRKQMAVKKYLAAVLGKRYKQRVKNK-NH2) the figure was 29 nM.
